Article PMC3466466, “Taltirelin is a superagonist at the human thyrotropin-releasing hormone receptor” (Frontiers in Endocrinology, 2012)

Columns and labels:
[1] = target: T1, TRH-R (human TRH receptor) (Homo sapiens, UniProt P34981); assay: intracellular Ca2+ release, calcium […] dye, FLIPR; assay type: cell-based; settings: read-out: EC50 for Ca signaling
T1 construct: gene TRHR; full-length human cDNA subcloned into pcDNA3.1(+)/hygromycin; stably expressed in HEK-EM 293 cells, 16,000 receptors/cell
T1 sequence (P34981 1-398): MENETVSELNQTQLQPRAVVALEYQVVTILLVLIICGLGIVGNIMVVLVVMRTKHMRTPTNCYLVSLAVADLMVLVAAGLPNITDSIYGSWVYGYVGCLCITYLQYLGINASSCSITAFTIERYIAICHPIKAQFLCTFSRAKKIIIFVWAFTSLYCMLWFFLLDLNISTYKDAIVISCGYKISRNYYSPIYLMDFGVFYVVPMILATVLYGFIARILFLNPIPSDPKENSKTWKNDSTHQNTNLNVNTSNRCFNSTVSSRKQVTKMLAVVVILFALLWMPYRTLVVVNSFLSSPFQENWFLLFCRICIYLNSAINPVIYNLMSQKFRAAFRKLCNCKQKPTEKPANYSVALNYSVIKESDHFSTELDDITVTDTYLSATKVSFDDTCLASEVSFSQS

[2] = target: T1, TRH-R (human TRH receptor); assay: [3H]MeTRH competition binding, intact HEK-EM […] cells; assay type: cell-based

Compound: CN1C(=O)C[C@@H](C(=O)N[C@@H](Cc2c[nH]cn2)C(=O)N2CCC[C@H]2C(N)=O)NC1=O [TAL, N-[[(4S)-Hexahydro-1-methyl-2,6-dioxo-4-pyrimidinyl]carbonyl]-L-histidyl-L-prolinamide]
- EC50 [1]: 36 nM
- IC50 [2]: 910 nM
